The values that follow come from ChEMBL document CHEMBL5335861, “Novel ACC Inhibitors for Treating Acne” (ACS Med Chem Lett, 2024).

In this test the target is Acetyl-CoA carboxylase 1 (Homo sapiens, UniProt Q13085). In words: Inhibition of full length human recombinant ACC1 expressed in baculovirus infected Sf9 cells incubated for 18 hrs in presence of ATP by envision fluorescence reader analysis.

In general, IC50 refers to the point on the concentration scale where inhibition reaches its midpoint. On to `COc1cc(C(=O)N2CCC3(CC2)CC(=O)c2nc(C(C)(C)C)sc2C3)c2[nH]ccc2c1Cl`, for which the IC50 came to 1.3 nM.
